Some test systems named below: 786-0; A549; CAKI-1; HCC 2998; HCT-116; IGROV-1; KM12; MCF7; MDA-N; NCI-H226; NCI-H522; OVCAR-4; SK-MEL-5; SN12C; SNB-75; TK-10; HOP-92; LOX IMVI; SR.
Assay in all cases: growth of human tumour cells (NCI), 48 h

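96-well plates; 48 h exposure; 5 concentrations. Endpoints by linear interpolation between flanking doses. Not reached: highest tested concentration assigned. At the GI50, growth is halved.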 Active and inactive are the calls of the source. No stated cut-off is given here; in the data, active = GI50 up to about 1.1 µM and inactive = higher.

Consider `Cc1ccc(/N=N/C(=N/NC(=O)c2cc(Cl)ccc2C(=O)c2ccccc2)c2ccc(N(CCC#N)CCC#N)cc2C)cc1`, for which the GI50 in the test on 786-0 is 10.4 µM (inactive); in the test on A549, 11.5 µM (inactive); with CAKI-1, 20.4 µM (inactive); in the test on HCC 2998 it was 13.8 µM (inactive); with HCT-116, 9.64 µM (inactive); in the test on IGROV-1 it was 7.59 µM (inactive). The GI50 is 10.9 µM (inactive) in the test on KM12; 3.52 µM (inactive) with MCF7; 17 µM (inactive) in the test on MDA-N; 10.4 µM (inactive) in the test on NCI-H226; 4.81 µM (inactive) in the test with NCI-H522; 10.4 µM (inactive) in the test on OVCAR-4. Moreover, the GI50 in the test with SK-MEL-5 was 14 µM (inactive); in the test on SN12C it was 9.75 µM (inactive); with SNB-75 it was 18.2 µM (inactive); with TK-10, 19.7 µM (inactive).
`Cc1ccsc1/C=N/Nc1cnccn1`: the GI50 in the test on 786-0, in the test with A549, in the test with CAKI-1, in the test on HCC 2998, with HCT-116 and in the test with HOP-92 was > 100 µM (inactive) throughout. Besides, the GI50 was 40.1 µM (inactive) with IGROV-1; 99.5 µM (inactive) in the test with KM12; 76.4 µM (inactive) in the test with LOX IMVI; 3.53 µM (inactive) in the test on MCF7; > 100 µM (inactive) in the test on NCI-H226; > 100 µM (inactive) with OVCAR-4. The GI50 with SK-MEL-5, with SN12C, with SNB-75 and in the test with TK-10 was > 100 µM (inactive) each time.
Regarding `S=c1[nH]c(=S)c2nnn(-c3ccccc3)c2[nH]1`, the GI50 is > 100 µM (inactive) in the test on 786-0; > 100 µM (inactive) in the test with A549; > 100 µM (inactive) in the test with CAKI-1; > 100 µM (inactive) with HCC 2998; 0.0836 µM (active) with HCT-116; > 100 µM (inactive) in the test with HOP-92. Moreover, the GI50 in the test on IGROV-1, in the test on KM12, with LOX IMVI, in the test on NCI-H226, with NCI-H522 and in the test with SK-MEL-5 was > 100 µM (inactive) throughout. Besides, the GI50 with SN12C, in the test with SNB-75, in the test on SR and with TK-10 was > 100 µM (inactive) throughout.
Turning to `O=C1CCc2ccc(O)c(c2)Oc2ccc(cc2)[C@@H]2O[C@@H]2CO1`, the GI50 with 786-0 is > 100 µM (inactive); in the test on A549, 56.8 µM (inactive); in the test with CAKI-1, 29.6 µM (inactive); with HCC 2998 it was > 100 µM (inactive); in the test on HCT-116, 48.2 µM (inactive); in the test with HOP-92, 23.7 µM (inactive). Further, the GI50 with IGROV-1 was 17.8 µM (inactive); in the test on KM12 it was 72.8 µM (inactive); in the test on LOX IMVI, 40.8 µM (inactive); in the test with NCI-H226 it was 40.5 µM (inactive); in the test with OVCAR-4, 41 µM (inactive); with SK-MEL-5, 23.6 µM (inactive). Further, the GI50 was 62.4 µM (inactive) in the test with SN12C, 37.9 µM (inactive) with SNB-75, 30.1 µM (inactive) in the test with SR and 73.5 µM (inactive) in the test on TK-10.
Turning to `O=C(N/N=C\c1cccs1)c1ccncc1`, the GI50 with 786-0, in the test on A549, in the test on CAKI-1, in the test on HCC 2998, in the test with HCT-116 and in the test with HOP-92 was > 100 µM (inactive) in each case. For the same molecule, the GI50 with IGROV-1, in the test on KM12, with MCF7, in the test with NCI-H226, in the test on NCI-H522 and with OVCAR-4 was > 100 µM (inactive) each time. Also, the GI50 in the test with SK-MEL-5, in the test on SN12C, with SNB-75, in the test with SR and in the test with TK-10 was > 100 µM (inactive) throughout.
Regarding `CCOc1ccc(N/C(=C(/C(Cl)=C(/Cl)N(CC)CC)[N+](=O)[O-])n2nnc3ccccc32)cc1`, the GI50 in the test with 786-0 was 17.2 µM (inactive); with A549, 34.4 µM (inactive); in the test with CAKI-1, 13.4 µM (inactive); in the test on HCC 2998 it was > 100 µM (inactive); with HCT-116, 16.7 µM (inactive); in the test with KM12, 12 µM (inactive). The GI50 is 29.9 µM (inactive) in the test with MCF7; 26.7 µM (inactive) with MDA-N; 37.8 µM (inactive) with NCI-H226; 19.7 µM (inactive) with OVCAR-4; 21.6 µM (inactive) in the test on SN12C; 20.3 µM (inactive) in the test on SNB-75.
Take `O=c1onc2c3ccccc3ncn12`: the GI50 in the test with 786-0, in the test with A549, in the test with CAKI-1, in the test with HCC 2998, in the test with HCT-116 and in the test on HOP-92 was > 100 µM (inactive) each time. Besides, the GI50 in the test with IGROV-1, with KM12, in the test with LOX IMVI, in the test on MCF7, in the test on NCI-H226 and in the test on NCI-H522 was > 100 µM (inactive) throughout. Moreover, the GI50 with OVCAR-4, with SK-MEL-5, in the test on SN12C, in the test with SNB-75, in the test with SR and in the test on TK-10 was > 100 µM (inactive) each time.
As to `COC(=O)c1cc(Br)c(C(=O)C(Cl)(Cl)Cl)[nH]1`, the GI50 in the test on 786-0, in the test on A549, with CAKI-1, in the test with HCT-116, with HOP-92 and in the test with IGROV-1 was > 100 µM (inactive) throughout. The GI50 in the test with KM12, in the test on LOX IMVI, in the test with MDA-N, in the test with NCI-H226, with NCI-H522 and in the test on OVCAR-4 was > 100 µM (inactive) throughout. The GI50 with SK-MEL-5, in the test with SN12C, with SNB-75 and in the test on TK-10 was > 100 µM (inactive) each time.
Consider `CCN(CC)CCNC(=O)c1cc2cc(NC(=O)c3cc4cc(NC(=O)c5cc6cc([N+](=O)[O-])ccc6[nH]5)ccc4[nH]3)ccc2[nH]1`, for which the GI50 in the test with 786-0, in the test on A549, with CAKI-1, with HCC 2998, in the test with HOP-92 and with IGROV-1 was > 100 µM (inactive) each time. Moreover, the GI50 in the test with KM12, with LOX IMVI, with NCI-H226, in the test with NCI-H522, in the test on OVCAR-4 and in the test with SK-MEL-5 was > 100 µM (inactive) in each case. Also, the GI50 was > 100 µM (inactive) in the test with SN12C, > 100 µM (inactive) with SNB-75, < 0.01 µM (active) in the test on SR and > 100 µM (inactive) in the test on TK-10.
For the molecule `Nc1nc(-c2ccccc2/N=N/N2CCCC2)nc2ccccc12`, the GI50 in the test with 786-0 was 2.38 µM (inactive); with A549 it was 2.62 µM (inactive); in the test with CAKI-1, 4.14 µM (inactive); in the test on HCT-116 it was 1.02 µM (active); in the test with HOP-92, 8 µM (inactive); in the test with IGROV-1, 2.91 µM (inactive). In addition, the GI50 in the test with KM12 is 2.13 µM (inactive); in the test on LOX IMVI, 1.75 µM (inactive); in the test on MCF7 it was 3.48 µM (inactive); with NCI-H226, 2.22 µM (inactive); in the test with NCI-H522, 4.28 µM (inactive); in the test on OVCAR-4, 5.96 µM (inactive). Further, the GI50 with SK-MEL-5 is 4.5 µM (inactive); in the test on SN12C, 1.59 µM (inactive); in the test with SNB-75, 11.5 µM (inactive); in the test on SR, 0.413 µM (active); with TK-10, 3.63 µM (inactive).
Take `COc1ccc(C2C3=C(CCCC3=O)N(c3ccccc3)C3=C2C(=O)CCC3)cc1`: the GI50 was 45.6 µM (inactive) in the test on 786-0; > 100 µM (inactive) in the test with A549; > 100 µM (inactive) with CAKI-1; 29 µM (inactive) in the test on HOP-92; > 100 µM (inactive) in the test on IGROV-1; > 100 µM (inactive) in the test on KM12. Further, the GI50 is > 100 µM (inactive) in the test on LOX IMVI; 43.8 µM (inactive) in the test with MCF7; 21.6 µM (inactive) in the test on NCI-H226; 61.5 µM (inactive) with OVCAR-4; > 10 µM (inactive) with SK-MEL-5; > 100 µM (inactive) in the test with SN12C. Also, the GI50 with SNB-75 is 28.2 µM (inactive); in the test on SR it was > 100 µM (inactive); with TK-10 it was > 100 µM (inactive).
On to `ClCCN(CCCl)c1ccc(CNCCCNCc2ccc(N(CCCl)CCCl)cc2)cc1`, for which the GI50 with 786-0 was 2 µM (inactive); with A549 it was 3.2 µM (inactive); with CAKI-1, 6.64 µM (inactive); in the test on HCC 2998 it was 2.1 µM (inactive); with HCT-116, 4.13 µM (inactive); in the test on HOP-92, 4.78 µM (inactive). For the same molecule, the GI50 is 1.92 µM (inactive) with IGROV-1; 1.99 µM (inactive) in the test with KM12; 1.65 µM (inactive) with LOX IMVI; 1.21 µM (inactive) in the test on MCF7; 6.75 µM (inactive) with NCI-H226; 2.13 µM (inactive) with NCI-H522. Also, the GI50 was 1.95 µM (inactive) in the test on SK-MEL-5, 1.63 µM (inactive) in the test on SN12C, 0.11 µM (active) in the test with SR and 2.67 µM (inactive) with TK-10.

Source of the values: ChEMBL document CHEMBL1201862, “PubChem BioAssay data set” (2004).
